Chromatographic logP and efficacy data for one compound are collected here from US20110294810A1, “SUBSTITUTED (PYRIDYL)-AZINYLAMINE DERIVATIVES AS PLANT PROTECTION AGENTS” (priority 2008, published 2011).

A short description of series [1]: Measurement of logP values by HPLC on reversed phase columns (EEC directive 79/831 Annex V.A8). The note with it: reversed phase HPLC column; HPLC on reversed phase columns; usually LC-MS at pH 2.7 with 0.1% formic acid in water and acetonitrile, linear gradient 10% to 95% acetonitrile; read-out: log p. It is filed as physicochemical.
The test system of the next series is Phakopsora pachyrhizi. Kind of series: Phakopsora test (soybeans) / protective. It counts as in vivo. The note with it: 500 ppm of active ingredient, evaluated 11 days after inoculation. As for the experimental part:
Solvent: 28.5 parts by weight of acetone Emulsifier: 1.5 parts by weight of polyoxyethylene alkyl phenyl ether
To produce a suitable preparation of active compound, 1 part by weight of active compound is mixed with the stated amounts of solvent and emulsifier, and the concentrate is diluted with water to the desired concentration.
To test for protective activity, young plants are sprayed with the preparation of active compound at the stated rate of application. One day after spraying, the plants are inoculated with an aqueous spore suspension of the causal agent of soybean rust (Phakopsora pachyrhizi). The plants are then placed in a greenhouse at approximately 20° C. and a relative atmospheric humidity of approximately 80%.
The test is evaluated 11 days after the inoculation. 0% means an efficacy which corresponds to that of the control, while an efficacy of 100% means that no disease is observed.

Structures are written as SMILES.

As to `OCc1cc(-c2ccnc(Nc3cccc(Cl)c3)n2)ccn1` [Compound A14, (4-{2-[(3-chlorophenyl)amino]pyrimidin-4-yl}pyridin-2-yl)methanol], the chromatographic logP in series [1] amounted to 1.91. Moreover, the efficacy in the series with Phakopsora pachyrhizi is on record as at least 80%.
